Assays:
HS578T cells = assay: Cell viability assay (WST-1), shRNA-transduced cells; type: cell-based, human; conditions: 4 days after transduction; normalized to control shRNA
Method: (§1) For in vitro cell line experiments, concentrated lentiviral supernatant (to achieve an MOI of 3) was mixed with cells at the time of seeding. Cells were monitored by visualization of RFP under fluorescence microscopy. All flow cytometry analyses were performed after at least 72 hours of infection.
(§2) For cell lines treated with chemical or infected with lentivirus, WST-1 Cell Proliferation Reagent (Roche) was added at 1:10 (v/v) final dilution to each well per manufacturer's instructions. Cells were subsequently incubated at 37° C. and 5% CO2. Between 1 and 4 hours after addition of reagent, plates were analyzed on a SpectraMax M3 Bioanalyzer (Molecular Devices). Absorbance for each well was measured at 450 nm (signal wavelength) and 650 nm (reference wavelength). Thus, the signal for each experimental sample was Absorbanceexperimental (A450nm-A650nm). To correct for the effect of media, Absorbancebackground (A450nm-A650nm) was obtained by measuring absorbance in a blank well. Thus, the background corrected signal for each sample Acorrected=Absorbanceexperimental−Absorbancebackground. All Acorrected values for the knockdowns were normalized to the Acorrected value for the control sample to obtain a ‘Relative Viability’.

MDA-MB468 cells = assay: as above; type: cell-based, human; conditions: 4 days after transduction; normalized to control shRNA
Method: as §1, §2

MDA-MB231 cells = assay: as above; type: cell-based, human; conditions: 4 days after transduction; normalized to control shRNA
Method: as §1, §2

[1] = tested on: human mammary epithelial cells (HMEC); assay: Cell viability assay (WST-1), non-transformed mammary cells; type: cell-based; conditions: 4 days after transduction; normalized to control shRNA
Method: as §1, §2

PDX-T1 [2] = assay: Survival of mice engrafted with shRNA-transduced PDX-T1 xenografts; type: in vivo, NSG mice; conditions: mice with PDX-T1 tumors; vs control shRNA; sacrificed when tumor exceeded 17 mm
From the text: We explored the effect of CDK19 knockdown on the growth of pre-established organoids in vitro and in pre-established PDX tumors in vivo. This aimed to model the treatment of patients' pre-existing tumors. […] In FIGS. 4A and 4B, number of organoid colonies at Day 0 (FIG. 4A) and Day 16 (FIG. 4B) after initiating doxycycline treatment is shown, ****P<0.0001; ns is P>0.05 (mean s.d., n=6, experiment performed twice, P values determined by unpaired t-test). […] In FIGS. 4C and 4D, the growth of pre-established tumors in the doxycycline fed NSG mice and control NSG mice are shown for inducCDK19KD-PDX-T1, ****P<0.0001; ***P<0.001 (mean±s.d., n=5, experiment performed twice, P values determined by unpaired t-test) (FIG. 4C) and inducCDK19KD-PDX-T3, ****P<0.0001; ***P<0.001 (mean±s.d., n=5, experiment performed once, P values determined by unpaired t-test) (FIG. 4D). CDK19 shRNA induced tumors were ultimately 82% smaller in inducCDK19KD-PDX-T1 tumors and 38% smaller in inducCDK19KD-PDX-T3 tumors when compared to control tumors (FIGS. 4C and 4D). […] Shown in FIG. 4E are Kaplan-Meir survival curves for mice engrafted with PDX-T1 xenografts transduced with control shRNA (black line), shCDK19-1 (solid gray line) or shCDK19-2 (dashed gray line). Mice were followed with weekly measurements of tumor diameters. Mice were sacrificed when the longest diameter of their tumor exceeded 17 mm. […]

PDX-T1 [3] = assay: PDX tumor growth in NSG mice, percentage of RFP positive cells by flow cytometry; type: in vivo; conditions: normalized to control shRNA
Method: (§3) For in vivo PDX tumor growth and organoid colony formation experiments, concentrated lentiviral supernatant (to achieve an MOI of 10) was mixed with single cell suspensions of PDX tumor cells in organoid media with 4 μg/mL of Polybrene (Sigma-Aldrich). Organoid media consisted of: Advanced DMEM/F12 (Invitrogen), 10% FBS (Hyclone), 2.5% growth factor-reduced Matrigel (BD), 10 ng/mL mouse EGF (R&D), 100 ng/mL Noggin (R&D), 250 ng/mL RSPO-1 (R&D), 1× B27 (Invitrogen), 1× N2 (Invitrogen), and PSA (Life Technologies). Cells were then spinoculated by centrifuging at 15° C. for 2 hours at 1200×g. Cells were resuspended by pipetting and left overnight in 48-well ultra-low attachment cell culture plates (Corning).
(§4) For organoid colony formation assays, cells were transferred the next day to matrigel. For in vivo PDX assays, approximately 75% of the cells were injected into NSG mice as described in the PDX tumor engraftment section. The remainder 25% of cells were plated on matrigel and grown in organoid media for 72 hours until the cells became RFP positive. At that point media was removed and exchanged for dispase and incubated for 2-3 h until the matrigel dissolved. Dissociated cells were resuspended in flow cytometry buffer and analyzed by flow cytometry to determine the ‘baseline’ RFP percentage for cells that were injected into the mice.
(§5) Single cell suspensions of PDX cells were resuspended in 50% (v/v) mixtures of normal matrigel (BD Biosciences) and flow cytometry buffer in a total volume of 50-100 μL. Using an insulin syringe, cells were injected subcutaneously into the nipple of female NSG mice at the fourth abdominal fat pad. For limiting dilution assays, the specific number of cells injected into the mice were determined by flow cytometry and secondarily by manual counting with a hemocytometer.
(§6) Flow cytometry was performed with a 100 μm nozzle on a Flow Cytometry Aria II (BD Biosciences) with Diva software (BD Biosciences). Data analysis was performed using Flowjo software (Flowjo). For all experiments, side scatter and forward scatter profiles (area and width) were used to eliminate debris and cell doublets. Dead cells were eliminated by excluding 4′,6-diamidino-2-phenylindole (DAPI)-positive cells (Molecular Probes). For PDX tumor cells, they were gated for GFP positivity and then for RFP positivity. RFP percentage is the percentage of GFP positive cells that are also RFP positive. For each sample, we obtain the RFP fraction that is: the RFP % in the tumor divided by the baseline RFP % (see ‘Lentivirus infection’ section). RFP fraction for each sample is then normalized to the RFP fraction for the shRNA control sample which is set at 100% to obtain the ‘Normalized % RFP’.

PDX-T3 = assay: as above; type: in vivo; conditions: normalized to control shRNA
Method: as §3, §4, §5, §6

PDX-T2 = assay: as above; type: in vivo; conditions: normalized to control shRNA
Method: as §3, §4, §5, §6

PDX-T4 [4] = assay: as above; type: in vivo
Method: as §3, §4, §5, §6

PDX-T1 [5] = assay: RFP positive lung metastases in mice bearing PDX tumor xenografts; type: in vivo, NSG mice
From the text: (§7) Xenograft tumors and mice lungs were surgically resected after the mice were euthanized. A 3 to 4 mm section is cut from each tumor and saved in ice cold PBS for imaging. The mice lungs and tumors were imaged on a M205FA Fluorescence Stereo Microscope (Leica) and images were captured with a DFC310FX camera (Leica).
(§8) Percentage of mice with RFP positive lung metastases from mice bearing PDX-T1 (FIG. 1K) or PDX-T4 (FIG. 1L) tumor xenografts are shown. Number of mice with RFP positive lung metastases and total number of mice in each treatment group is shown as a fraction for each condition. PDX tumor cells were transduced with either control shRNA or CDK19 targeting shRNA (shCDK19-1, shCDK19-2) (For FIG. 1K, n=9, experiment performed three times; For […], n=3, experiment performed once). […] In FIG. 1N, bright field images (left column) show gross lung morphology, FITC images (middle column) identify metastatic tumor cells labeled with GFP, and Texas-Red images (right column) identify shRNA-transduced metastatic cells labeled with RFP. We also tested the effect of CDK19 knockdown on PDX-T4, an aggressive PDX obtained from the brain metastasis of a patient with a chemotherapy-resistant inflammatory breast cancer.

PDX-T4 [6] = assay: as above; type: in vivo, NSG mice
From the text: as §7, §8

PDX-T1 tumor cells = assay: Organoid colony formation assay; type: cell-based, human; conditions: colonies counted 2 weeks after transduction
Method: as §3
For organoid colony formation assays, cells were transferred the next day to matrigel. For in vivo PDX assays, approximately 75% of the cells were injected into NSG mice as described in the PDX tumor engraftment section. […] Dissociated cells were resuspended in flow cytometry buffer and analyzed by flow cytometry to determine the ‘baseline’ RFP percentage for cells that were injected into the mice.
Irradiated L1-Wnt3a feeder cells (generous gift of Dr. Roel Nusse) were mixed with growth factor reduced matrigel (BD Biosciences) and allowed to solidify at 37° C. […] Colonies were counted under fluorescence microscopy. Only RFP positive colonies (which represent transduced cells) were counted. […]

CDK19 = assay: Quantitative PCR RNA expression analysis of CDK19 knockdown; type: cell-based, human; conditions: normalized to control shRNA and beta-actin
Method: Cells were lysed with Trizol (Life Technologies) and RNA was extracted according to the manufacturer's instruction. RNA was then treated with DNAsel to remove contaminating genomic DNA. RNA was reverse transcribed to cDNA using SuperScript III First Strand Synthesis kit (Life Technologies) according to the manufacturer's instructions. TaqMan Gene Expression Master Mix (Applied Biosystems) and the following TaqMan Gene Expression Assays (Applied Biosystems) were used following manufacturer's instructions: ACTB, Hs00357333_g1; CDK19, Hs01039931_m1; CDK8, Hs00993274_m1. Data was collected on a 7900HT Fast Real-Time PCR System (Applied Biosystems) and data analyzed with SDS 2.4 software (Applied Biosystems). Gene expression data in each sample was normalized against the expression of beta-actin.

Substance: shCDK19-2: CDK19 targeting shRNA, sense strand 5′-ACCAGCAAATATCCTAGTAAT-3′ (SEQ ID NO: 2), lentiviral vector (sense ACCAGCAAATATCCTAGTAAT; listed as Homo sapiens)
- Relative viability of HS578T cells (HS578T cells): significantly decreased the viability
- Relative viability of MDA-MB468 cells (MDA-MB468 cells): significantly decreased the viability
- Relative viability of MDA-MB231 cells (MDA-MB231 cells): significantly decreased the viability
- Relative viability of HMEC cells [1]: neither of the two CDK19 knockdowns affected the viability
- Overall survival (PDX-T1 [2]): significantly longer
- Percentage of RFP positive cells in tumors (PDX-T1 [3]): significant reduction in the percentage of RFP positive cells
- Percentage of RFP positive cells in tumors (PDX-T3): significant reduction in the percentage of RFP positive cells
- Percentage of RFP positive cells in tumors (PDX-T2): significant reduction in the percentage of RFP positive cells
- Growth of the PDX (PDX-T4 [4]): inhibited both the growth of the PDX
- RFP positive lung metastases (PDX-T1 [5]): eliminated the detection of any lung metastases
- RFP positive lung metastases (PDX-T4 [6]): prevented transduced (RFP positive) TNBC cells from metastasizing to the lungs
- Formation of organoid colonies (PDX-T1 tumor cells): inhibited the formation of organoid colonies
- Expression of CDK19 by RT-qPCR (CDK19; MDA-MB231): effectively silences CDK19
- Expression of CDK19 by RT-qPCR (CDK19; MDA-MB468): effectively silences CDK19
- Expression of CDK19 by RT-qPCR (CDK19; PDX-T1): effectively silences CDK19

Substance: shCDK19-1: CDK19 targeting shRNA, sense strand 5′-GCGAGAATTGAAGTACCTTAA-3′ (SEQ ID NO: 1), lentiviral vector (sense GCGAGAATTGAAGTACCTTAA; listed as Homo sapiens)
- Relative viability of HS578T cells (HS578T cells): significantly decreased the viability
- Relative viability of MDA-MB468 cells (MDA-MB468 cells): significantly decreased the viability
- Relative viability of MDA-MB231 cells (MDA-MB231 cells): significantly decreased the viability
- Relative viability of HMEC cells [1]: neither of the two CDK19 knockdowns affected the viability
- Overall survival (PDX-T1 [2]): significantly longer
- Percentage of RFP positive cells in tumors (PDX-T1 [3]): significant reduction in the percentage of RFP positive cells
- Percentage of RFP positive cells in tumors (PDX-T3): significant reduction in the percentage of RFP positive cells
- Percentage of RFP positive cells in tumors (PDX-T2): significant reduction in the percentage of RFP positive cells
- Growth of the PDX (PDX-T4 [4]): inhibited both the growth of the PDX
- RFP positive lung metastases (PDX-T1 [5]): eliminated the detection of any lung metastases
- RFP positive lung metastases (PDX-T4 [6]): prevented transduced (RFP positive) TNBC cells from metastasizing to the lungs
- Formation of organoid colonies (PDX-T1 tumor cells): inhibited the formation of organoid colonies
- Expression of CDK19 by RT-qPCR (CDK19; MDA-MB231): effectively silences CDK19
- Expression of CDK19 by RT-qPCR (CDK19; MDA-MB468): effectively silences CDK19
- Expression of CDK19 by RT-qPCR (CDK19; PDX-T1): effectively silences CDK19
